Values joined by “and” are separate entries in the source; they are usually repeats but may differ in a detail not shown here. Equal values may be shown once. Read-outs that look alike come from different tables or passages of the source.
Legend:
Assay in all cases: MIC of compounds alone and combined with antibacterials, broth microdilution (CLSI)
Assay type in all cases: cell-based
[1] = tested on: Enterobacter cloacae (ECL) isolates
Summary of the method: (§1)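 Log-phase isolates were inoculated at a final 5.10^5 CFU/mL in cation-adjusted Mueller-Hinton broth and incubated 16-20 h at 35° C in ambient air. MIC was the lowest concentration preventing visible growth; for combinations, the antibacterial MIC was read at each compound concentration.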

[2] = tested on: Klebsiella oxytoca (KOX) isolates
Summary of the method: as §1

[3] = tested on: Providencia rettgeri (PRE) isolates
Summary of the method: as §1

[4] = tested on: Serratia marcescens (SMA) isolates
Summary of the method: as §1

[5] = tested on: Citrobacter murliniae (CMU) isolates
Summary of the method: (§2)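 Visual read-out: MIC is the lowest concentration stopping growth, and in combinations the lowest antibacterial concentration doing so at each fixed compound level. Inoculum 5.10^5 CFU/mL log-phase cells in ca-MHB, 35° C, 16-20 h, ambient air.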

[6] = tested on: Providencia stuartii (PST) isolates
Summary of the method: as §2

[7] = tested on: Salmonella typhimurium (STY) isolates; conditions: STY S3371; AF2 @ 8 μg/mL
Summary of the method: as §2

CC1(C)S[C@@H]2[C@H](NC(=O)[C@H](N)c3ccc(O)cc3)C(=O)N2[C@H]1C(=O)O [AMX, Amoxicillin]
>1024 µg/mL: MIC ([1]; strain ECL P99, genotype AmpC)
<0.25 µg/mL: MIC ATB in combination ([1]; ECL 200322, AF2 @ 8 μg/mL) | MIC ATB in combination ([1]; ECL 260253, AF2 @ 8 μg/mL) | MIC ATB in combination ([1]; ECL 260323, AF2 @ 8 μg/mL) | MIC ATB in combination ([1]; ECL 260508, AF2 @ 8 μg/mL) | MIC ATB in combination ([1]; ECL UFR12, AF2 @ 8 μg/mL) | MIC ATB in combination ([1]; ECL UFR51, AF2 @ 8 μg/mL) | MIC ATB in combination ([1]; ECL UFR85, AF2 @ 8 μg/mL) | MIC ATB in combination [7]
>128 µg/mL: MIC ATB in combination [1] | MIC ([1]; strain ECL UFR192, genotype TEM-1, NDM-1, antibiotic alone) | MIC ([1]; strain ECL UFR193, genotype TEM-1, CTX-M-15, OXA-1, NDM-1, RmtC, antibiotic alone) | MIC ([1]; strain ECL UFR194, genotype OXA-48) | MIC ([1]; strain ECL UFR195, genotype TEM-1, CTX-M-15, OXA-1, OXA-48) | MIC ([1]; strain ECL UFR196, genotype TEM-1, CTX-M-15, OXA-1, OXA-48) | MIC ([1]; strain ECL UFR197, genotype TEM-1, CTX-M-15, OXA-1, OXA-48) | MIC ([1]; strain ECL UFR198, genotype TEM-1, SHV-12, CTX-M-15, DHA-1, OXA-1, OXA-48) | MIC ([1]; strain ECL UFR200, genotype TEM-1, SHV-12, KPC-2) | MIC ([1]; strain ECL UFR203, genotype TEM-1, SHV-12, VIM-1, antibiotic alone) | MIC ([1]; strain ECL UFR214, genotype TEM-1, SHV-31, CTX-M-15, VIM-4, antibiotic alone) | MIC ([1]; strain ECL UFR252PT, genotype VIM-2, antibiotic alone) | MIC [2] | MIC ATB in combination [2] | MIC ([2]; strain KOX UFR223, genotype SHV-11, OXA-48) | MIC ([2]; strain KOX UFR224, genotype CTX-M-15, OXA-48) | MIC ATB in combination [3] | MIC ([3]; strain PRE UFR96, genotype CTX-M-15, NDM-1) | MIC ([3]; strain PRE UFR97, genotype TEM-1, NDM-1) | MIC ([3]; strain PRE UFR99, genotype OXA-1, OXA-181) | MIC ([3]; strain PRE UFR236, genotype TEM-1, OXA-48) | MIC [4] | MIC ([4]; strain SMA UFR134, genotype TEM-1, BES-1) | MIC ([4]; strain SMA UFR135, genotype TEM-1, KPC-2) | MIC ([4]; strain SMA UFR136, genotype TEM-1, SHV-12, KPC-2) | MIC ([4]; strain SMA UFR140, genotype IMP-1) | MIC ([4]; strain SMA UFR141, genotype OXA-48) | MIC ([4]; strain SMA UFR142, genotype OXA-48) | MIC ([4]; strain SMA UFR143, genotype CTX-M-15, OXA-1, OXA-48) | MIC ([4]; strain SMA UFR238, genotype OXA-48) | MIC ATB in combination [5] | MIC ([6]; strain PST UFR94, genotype CTX-M-14) | MIC ([6]; strain PST UFR95, genotype TEM-24) | MIC ([6]; strain PST UFR98, genotype TEM-1, CMY-6, OXA-1, NDM-1, RmtC) | MIC ([6]; strain PST UFR235, genotype VEB-1)
16 µg/mL: MIC ATB in combination ([6]; PST UFR123, CLA @ 4 μg/mL)
>128 µg/mL and 128 µg/mL: MIC ATB in combination [4]
8 µg/mL: MIC ATB in combination ([6]; PST UFR120, CLA @ 4 μg/mL) | MIC ATB in combination ([6]; PST UFR122, CLA @ 4 μg/mL)
64 µg/mL: MIC ATB in combination ([4]; SMA UFR30, AF2 @ 8 μg/mL) | MIC ATB in combination ([4]; SMA UFR239, CLA @ 4 μg/mL)
4 µg/mL: MIC ATB in combination ([6]; PST UFR121, CLA @ 4 μg/mL) | MIC ATB in combination ([6]; PST UFR125, CLA @ 4 μg/mL)
>256 µg/mL: MIC ([1]; strain ECL 2185D, genotype OXA-163) | MIC ([1]; strain ECL 190310, genotype AmpC) | MIC ([1]; strain ECL 190408, genotype TEM-1, CTX-M-15, OXA-1) | MIC ([1]; strain ECL 200138, genotype AmpC) | MIC ([1]; strain ECL 200322, genotype TEM-1, CTX-M-15, OXA-1) | MIC ([1]; strain ECL 260033, genotype AmpC) | MIC ([1]; strain ECL 260253, genotype TEM-1, KPC-3) | MIC ([1]; strain ECL 260323, genotype AmpC) | MIC ([1]; strain ECL 260508, genotype TEM-1, CTX-M-15) | MIC ([1]; strain ECL HAN, genotype OXA-35) | MIC ([1]; strain ECL NEM146383, genotype AmpC) | MIC ([1]; strain ECL UFR12, genotype CTX-M-9, OXA-48) | MIC ([1]; strain ECL UFR13, genotype TEM-1, SHV-12, CTX-M-9, OXA-48) | MIC ([1]; strain ECL UFR14, genotype TEM-1, SHV-12, CTX-M-15, DHA-1, OXA-1, OXA-48) | MIC ([1]; strain ECL UFR38, genotype CTX-M-15, NDM-1) | MIC ([1]; strain ECL UFR51, genotype SHV-12, IMP-8) | MIC ([1]; strain ECL UFR60, genotype TEM-1, CTX-M-15, KPC-2) | MIC ([1]; strain ECL UFR70, genotype TEM-1, CTX-M-15, CMY-2, OXA-1, Porin loss) | MIC ([1]; strain ECL UFR84, genotype TEM-1, AmpC, OXA-1) | MIC ([1]; strain ECL UFR85, genotype TEM-1, CTX-M-15, AmpC) | MIC ([2]; strain KOX UFR21, genotype TEM-1, CTX-M-15, OXA-48) | MIC ([4]; strain SMA UFR30, genotype OXA-405) | MIC ([5]; strain CMU 210102, genotype VIM-4)
0.5 µg/mL: MIC ATB in combination ([1]; ECL UFR70, AF2 @ 8 μg/mL)
<=0.25 μg/mL: MIC ATB in combination ([1]; ECL 190408, AF2 @ 8 μg/mL) | MIC ATB in combination ([1]; ECL UFR38, AF2 @ 8 μg/mL)
>512 µg/mL: MIC ATB in combination ([1]; ECL P99, CLA @ 4 μg/mL)
128 µg/mL and >128 µg/mL: MIC ATB in combination [6]
